{"source": "patent US20250388602A1", "about": "(Genase Therapeutics B.V., priority 2022, published 2025)", "key": {"[1]": {"tested_on": "DENV-2", "assay": "anti-DENV-2 CPE reduction assay in A549 cells (MTS)", "format": "cell-based, DENV-2 laboratory-adapted New Guinea C strain", "description": "(§1) The lung cancer epithelial cell line A549 was obtained from the American Type Culture Collection (ATCC; Rockville, MD, USA) and cultured in MEM medium (Gibco BRL, Gaithersburg, MD, USA) with 10% fetal calf serum (FCS; Gibco BRL), 2 mM L-glutamine (Gibco BRL) and 0.075% sodium bicarbonate (Gibco BRL).\n(§2) The ZIKV MR766 prototype strain and the DENV-2 laboratory-adapted New Guinea C strain were obtained from ATCC and stocks were grown in the C6/36 mosquito cell line (ATCC). Viral stock titers were determined using plaque assay in BHK-21 cells (ATCC).\n(§3) The anti-ZIKV and anti-DENV-2 activity in A549 cells was determined using a tetrazolium-based colorimetric cytopathic effect (CPE) reduction assay. This assay has been described in detail before (Virology. 2021; doi.org/10.1016/j.virol.2021.07.003). […] Three hours after MTS incubation, virus was inactivated using 0.5% Triton X-100 (Thermo Fisher Scientific, Waltham, MA, USA) and the absorbance was then recorded at 490 nm with a 96-well plate reader and compared with four cell control replicates (cells without virus and drugs) and four virus control wells (cells with virus but without drug). […] Absorbance was recorded using the VersaMax ELISA™ microplate reader (Molecular Devices) and analyzed with the Softmax Pro® software (Molecular Devices, Version 4.0). […]"}, "[2]": {"tested_on": "Human CYPs", "assay": "CYP inhibition panel in pooled human liver microsomes, overall statement", "format": "in vitro ADME", "conditions": "compared to C-analogue", "description": "(§4) CYP inhibition: Co-incubation of compounds with P450 enzyme-selective substrates was performed using pooled human liver microsomes (Cat. No. H0610, Xenotech), to determine their potential to cause drug-drug interactions. The assay was performed in duplicate. The formation of acetaminophen, 7′-hydoxycoumarin, hydrobupropion, N-desethylamodiaquine, 4′-hydroxydiclofenac, 4′-hydroxymephenytoin, 1′-hydroxybufuralol, 6″-hydroxychlorzoxazone were quantified as markers for CYP1A2, CYP2A6, […], CYP2C8, CYP2C9, CYP2C19, […], CYP2E1, respectively. CYP3A4 inhibition was measured using 2 substrates, measuring the formation of […] (3A4-T), and 1′-hydroxymidazolam (3A4-M). The incubation was carried out in 96 deep well plates each well containing: 179 μL of the master solution (0.2 mg/mL microsomes plus CYP substrate (see below for final substrate concentration and incubation time for the different CYP assays)) in 100 mM phosphate buffer and 1 μL of the compound working solution or vehicle. The final concentrations of the compounds in the assay was 30 μM when using a single dose or 0.1, 0.3, 1, 3, 10 and 30 μM for a dose response.\nThe incubation plate was placed into a water bath and pre-warmed at 37° C. for 5 minutes before the reactions were started by the addition of 20 μL of 10 mM NADPH solution and incubated at 37° C. for the time listed above. […]"}, "[3]": {"target": "CYP2C9 (Homo sapiens (Human), UniProt P11712)", "sequence (P11712 whole entry)": "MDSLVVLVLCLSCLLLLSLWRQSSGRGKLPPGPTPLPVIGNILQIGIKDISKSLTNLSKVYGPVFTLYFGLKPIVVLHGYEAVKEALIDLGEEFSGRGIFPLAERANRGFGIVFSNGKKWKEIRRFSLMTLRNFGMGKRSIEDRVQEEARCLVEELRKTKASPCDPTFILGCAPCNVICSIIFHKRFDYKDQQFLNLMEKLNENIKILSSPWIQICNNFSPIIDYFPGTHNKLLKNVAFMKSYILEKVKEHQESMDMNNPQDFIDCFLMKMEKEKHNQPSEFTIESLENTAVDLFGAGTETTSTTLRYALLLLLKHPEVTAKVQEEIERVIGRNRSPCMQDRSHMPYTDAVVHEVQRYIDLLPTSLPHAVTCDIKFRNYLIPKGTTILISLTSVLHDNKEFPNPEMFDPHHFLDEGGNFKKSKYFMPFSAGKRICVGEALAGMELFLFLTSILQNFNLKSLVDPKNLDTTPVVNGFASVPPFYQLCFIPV", "assay": "biochemical", "format": "in vitro ADME", "description": "as §4\n(§5) The incubation plate was placed into a water bath and pre-warmed at 37° C. for 5 minutes before the reactions were started by the addition of 20 μL of 10 mM NADPH solution and incubated at 37° C. for the time listed above. The reaction was stopped by addition of 1.5 volumes (300 μL) of cold ACN containing 3% formic acid and 200 nM tolbutamide, 200 nM aprozolam and 200 nM labalol. The plate was centrifuged at 3,220 g for 50 minutes and then 200 μL of the supernatant was transferred to the analysis plate for LC/MS/MS analysis. The respective metabolite formation from each probe substrate was compared with that observed for the solvent control incubations."}, "[4]": {"target": "CYP2E1 (Homo sapiens (Human), UniProt P05181)", "sequence (P05181 whole entry)": "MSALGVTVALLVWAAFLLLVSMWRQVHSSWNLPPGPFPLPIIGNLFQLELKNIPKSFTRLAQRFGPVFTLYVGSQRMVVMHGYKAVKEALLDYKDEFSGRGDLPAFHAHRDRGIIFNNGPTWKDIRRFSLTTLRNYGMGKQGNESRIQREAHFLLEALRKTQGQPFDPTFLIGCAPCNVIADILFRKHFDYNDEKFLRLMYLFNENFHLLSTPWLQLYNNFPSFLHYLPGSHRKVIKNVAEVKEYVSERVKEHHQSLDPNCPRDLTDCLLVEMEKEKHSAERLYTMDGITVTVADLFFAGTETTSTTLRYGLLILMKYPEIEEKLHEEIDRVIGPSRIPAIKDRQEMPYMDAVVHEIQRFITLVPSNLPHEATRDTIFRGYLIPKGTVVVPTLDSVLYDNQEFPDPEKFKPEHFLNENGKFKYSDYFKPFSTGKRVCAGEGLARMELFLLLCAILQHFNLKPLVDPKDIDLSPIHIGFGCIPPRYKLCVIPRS", "assay": "biochemical", "format": "in vitro ADME", "description": "as §4, §5"}, "[5]": {"target": "CYP3A4 (Homo sapiens (Human), UniProt P08684)", "sequence (P08684 whole entry)": "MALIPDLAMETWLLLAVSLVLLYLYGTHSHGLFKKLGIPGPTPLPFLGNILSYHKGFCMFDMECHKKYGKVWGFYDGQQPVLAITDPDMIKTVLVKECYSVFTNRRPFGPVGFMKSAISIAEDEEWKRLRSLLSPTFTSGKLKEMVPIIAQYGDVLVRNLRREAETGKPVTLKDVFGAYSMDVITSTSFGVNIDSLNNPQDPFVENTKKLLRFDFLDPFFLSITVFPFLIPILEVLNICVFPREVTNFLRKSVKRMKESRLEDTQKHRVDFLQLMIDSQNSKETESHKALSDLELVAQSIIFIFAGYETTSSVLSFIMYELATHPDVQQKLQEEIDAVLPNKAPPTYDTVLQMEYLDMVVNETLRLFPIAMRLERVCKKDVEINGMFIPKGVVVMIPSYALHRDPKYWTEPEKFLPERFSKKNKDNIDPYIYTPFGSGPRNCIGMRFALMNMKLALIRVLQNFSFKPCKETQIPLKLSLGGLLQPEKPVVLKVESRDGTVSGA", "assay": "biochemical", "format": "in vitro ADME", "description": "as §4, §5"}, "[6]": {"target": "CYP2D6 (Homo sapiens (Human), UniProt P10635)", "sequence (P10635 whole entry)": "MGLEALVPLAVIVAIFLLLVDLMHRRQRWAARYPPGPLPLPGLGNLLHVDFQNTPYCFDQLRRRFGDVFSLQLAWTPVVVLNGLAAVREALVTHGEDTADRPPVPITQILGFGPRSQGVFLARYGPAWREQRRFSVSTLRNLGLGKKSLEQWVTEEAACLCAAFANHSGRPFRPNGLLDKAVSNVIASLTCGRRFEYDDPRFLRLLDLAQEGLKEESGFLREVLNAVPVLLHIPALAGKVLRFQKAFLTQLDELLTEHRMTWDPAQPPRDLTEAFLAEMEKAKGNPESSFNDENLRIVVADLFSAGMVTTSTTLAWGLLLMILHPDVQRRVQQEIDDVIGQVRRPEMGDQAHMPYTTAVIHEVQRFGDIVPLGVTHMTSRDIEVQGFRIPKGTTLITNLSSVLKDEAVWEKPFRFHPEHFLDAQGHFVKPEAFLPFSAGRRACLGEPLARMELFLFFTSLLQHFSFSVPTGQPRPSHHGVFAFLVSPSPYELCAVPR", "assay": "biochemical", "format": "in vitro ADME", "description": "as §4, §5"}, "[7]": {"target": "CYP2C19 (Homo sapiens (Human), UniProt P33261)", "sequence (P33261 whole entry)": "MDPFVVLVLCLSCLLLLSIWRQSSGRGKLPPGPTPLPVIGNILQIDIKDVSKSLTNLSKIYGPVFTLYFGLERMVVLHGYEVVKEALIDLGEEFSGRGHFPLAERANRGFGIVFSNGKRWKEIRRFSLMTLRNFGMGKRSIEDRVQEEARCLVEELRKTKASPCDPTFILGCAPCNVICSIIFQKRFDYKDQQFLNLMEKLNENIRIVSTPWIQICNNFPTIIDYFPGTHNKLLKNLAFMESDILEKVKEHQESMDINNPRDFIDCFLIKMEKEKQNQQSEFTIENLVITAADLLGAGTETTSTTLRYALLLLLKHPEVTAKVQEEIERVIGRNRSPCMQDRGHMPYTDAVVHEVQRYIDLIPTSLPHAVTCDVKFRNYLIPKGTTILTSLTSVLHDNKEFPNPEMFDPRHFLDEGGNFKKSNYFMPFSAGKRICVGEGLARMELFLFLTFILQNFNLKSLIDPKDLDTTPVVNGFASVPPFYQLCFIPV", "assay": "biochemical", "format": "in vitro ADME", "description": "as §4, §5"}, "[8]": {"target": "CYP2B6 (Homo sapiens (Human), UniProt P20813)", "sequence (P20813 whole entry)": "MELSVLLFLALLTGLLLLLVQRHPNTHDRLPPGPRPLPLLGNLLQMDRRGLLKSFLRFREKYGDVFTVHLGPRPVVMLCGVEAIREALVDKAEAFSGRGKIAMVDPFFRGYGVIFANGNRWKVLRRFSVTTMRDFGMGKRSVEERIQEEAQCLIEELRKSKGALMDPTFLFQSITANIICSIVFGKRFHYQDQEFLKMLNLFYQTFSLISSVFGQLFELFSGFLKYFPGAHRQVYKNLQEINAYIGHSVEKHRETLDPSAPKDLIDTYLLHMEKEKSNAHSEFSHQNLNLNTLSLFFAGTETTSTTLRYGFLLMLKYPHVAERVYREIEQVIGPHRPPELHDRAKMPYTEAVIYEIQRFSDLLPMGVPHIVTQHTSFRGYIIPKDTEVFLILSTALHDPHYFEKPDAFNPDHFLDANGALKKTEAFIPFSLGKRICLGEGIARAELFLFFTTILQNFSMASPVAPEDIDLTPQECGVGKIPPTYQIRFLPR", "assay": "biochemical", "format": "in vitro ADME", "description": "as §4, §5"}, "[9]": {"target": "CYP2C8 (Homo sapiens (Human), UniProt P10632)", "sequence (P10632 whole entry)": "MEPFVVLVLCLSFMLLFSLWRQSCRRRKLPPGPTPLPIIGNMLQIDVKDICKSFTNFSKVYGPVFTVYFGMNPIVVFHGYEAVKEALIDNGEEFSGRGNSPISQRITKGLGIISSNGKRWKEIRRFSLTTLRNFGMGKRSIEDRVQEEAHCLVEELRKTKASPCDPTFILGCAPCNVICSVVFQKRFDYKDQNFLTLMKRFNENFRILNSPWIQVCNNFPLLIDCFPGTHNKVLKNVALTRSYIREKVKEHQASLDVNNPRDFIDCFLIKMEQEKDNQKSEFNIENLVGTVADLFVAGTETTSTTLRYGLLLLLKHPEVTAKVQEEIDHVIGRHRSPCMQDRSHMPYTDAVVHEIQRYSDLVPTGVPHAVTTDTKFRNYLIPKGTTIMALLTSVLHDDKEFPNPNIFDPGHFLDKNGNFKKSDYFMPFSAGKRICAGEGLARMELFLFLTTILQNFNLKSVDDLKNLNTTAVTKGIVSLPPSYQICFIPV", "assay": "biochemical", "format": "in vitro ADME", "description": "as §4, §5"}, "[10]": {"target": "CYP2A6 (Homo sapiens (Human), UniProt P11509)", "sequence (P11509 whole entry)": "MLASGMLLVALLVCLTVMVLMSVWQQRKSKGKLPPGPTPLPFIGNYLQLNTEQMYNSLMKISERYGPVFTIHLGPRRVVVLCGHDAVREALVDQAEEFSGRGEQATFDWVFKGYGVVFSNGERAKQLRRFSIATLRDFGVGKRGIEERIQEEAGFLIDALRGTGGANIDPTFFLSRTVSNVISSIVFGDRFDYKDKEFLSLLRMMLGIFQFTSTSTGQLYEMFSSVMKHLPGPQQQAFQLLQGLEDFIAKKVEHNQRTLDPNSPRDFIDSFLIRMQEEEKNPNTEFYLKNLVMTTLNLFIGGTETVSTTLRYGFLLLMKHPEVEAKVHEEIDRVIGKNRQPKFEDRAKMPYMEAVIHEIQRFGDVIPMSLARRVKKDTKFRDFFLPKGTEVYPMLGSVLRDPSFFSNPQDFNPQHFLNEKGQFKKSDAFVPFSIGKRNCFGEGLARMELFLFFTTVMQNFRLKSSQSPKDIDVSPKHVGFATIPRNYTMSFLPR", "assay": "biochemical", "format": "in vitro ADME", "description": "as §4, §5"}, "[11]": {"tested_on": "MOLM-13 cells", "assay": "MOLM-13 cell viability (Assay B), Cell Titer-Glo", "format": "cell-based", "outline": "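Cells at 1,000 per well in RPMI/10% FBS were exposed to compound (10E-5 to 6E-12 M), with or without 100 μM uridine, for 72 h. Viability was read by CellTiter-Glo luminescence. Duplicates were run, and potency was taken from two independent experiments.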"}, "[12]": {"tested_on": "ZIKV", "assay": "anti-ZIKV CPE reduction assay in A549 cells (MTS)", "format": "cell-based, ZIKV MR766 prototype strain", "description": "as §1, §2, §3"}}, "data": [{"compound": "COc1ccc(F)c(-n2ncc3c2COC[C@H]3NC(=O)c2ncn3c2CCCC3)c1Cl", "note": "(single isomer, unassigned) [Ex-9]", "values": [{"measurement": "antiviral activity against DENV-2", "setting": "[1]; A549 cells", "result": "demonstrating antiviral activity"}, {"measurement": "IC50", "setting": "[1]; Dengue virus, DENV2, A549, 96 h, read-out: IC50 DENV-2 MTS", "result": "0.0016 ± 0.001", "unit": "µM"}, {"measurement": "inhibition of human CYPs", "setting": "[2]", "result": "No Inhibition"}, {"measurement": "IC50", "setting": "[3]", "result": "> 30", "unit": "µM"}, {"measurement": "IC50", "setting": "[4]", "result": "> 30", "unit": "µM"}, {"measurement": "IC50", "setting": "[5]; IC50 CYP3A4-M, substrate Midozolam", "result": "> 30", "unit": "µM"}, {"measurement": "IC50", "setting": "[5]; IC50 CYP3A4-T, substrate Testosterone", "result": "> 30", "unit": "µM"}, {"measurement": "IC50", "setting": "[6]", "result": "> 30", "unit": "µM"}, {"measurement": "IC50", "setting": "[7]", "result": "> 30", "unit": "µM"}, {"measurement": "IC50", "setting": "[8]", "result": "> 30", "unit": "µM"}, {"measurement": "IC50", "setting": "[9]", "result": "> 30", "unit": "µM"}, {"measurement": "IC50", "setting": "[10]", "result": "> 30", "unit": "µM"}, {"measurement": "IC50", "setting": "[11]; Homo sapiens, MOLM-13, 72 hours, bins ≥10 nM-<100 nM and <10 nM, read-out: IC50 MOLM13 inhibition activity", "result": "< 0.01", "unit": "µM"}, {"measurement": "MOLM13 cell growth and/or viability (FIG. 2)", "setting": "[11]; absence of uridine", "result": "reduce MOLM13 cell growth and/or viability"}, {"measurement": "effect on MOLM13 cell growth and/or viability on addition of excess uridine (FIG. 2)", "setting": "[11]; presence of 100 μM uridine", "result": "largely prevented"}, {"measurement": "antiviral activity against ZIKV", "setting": "[12]", "result": "demonstrating antiviral activity"}, {"measurement": "IC50", "setting": "[12]; Zika virus, 72 h, MOI 1, 3 d of infection", "result": "0.0093 ± 0.002", "unit": "µM"}]}]}
